Laboratory results: patent US10004701B2, “Methods and compositions for treating infection” (UNIVERSITY OF ROCHESTER, priority 2012, dated 2018)
Where a name gives a salt, the structure may show the parent alone. Read-outs that look alike come from different tables or passages of the source.

Columns and labels:
Experiment in all cases: AK assay 384-well format, Prestwick library screening
K. pneumoniae = format: cell-based, Klebsiella pneumoniae; settings: 50 μM final drug concentration; for AK-based Prestwick Library Screening Results, K. pneumoniae (increase in extracellular AK activity): 384-well format; for fold induction at 50 µM: Klebsiella pneumoniae, 3 h
[1] = tested on: S. aureus strain USA300-0114; format: cell-based, Staphylococcus aureus; settings: 50 μM final drug concentration; for AK-based Prestwick Library Screening Results, S. aureus (increase in extracellular AK activity): 384-well format; for fold induction at 50 µM: Staphylococcus aureus, USA300, 3 h
E. cloacae = format: cell-based, Enterobacter cloacae; settings: 50 μM final drug concentration; for AK-based Prestwick Library Screening Results, E. cloacae (increase in extracellular AK activity): 384-well format; for fold induction at 50 µM: Enterobacter cloacae, 3 h
[2] = tested on: A. baumannii strain 98-37-09; format: cell-based, Acinetobacter baumannii; settings: 50 μM final drug concentration; for AK-based Prestwick Library Screening Results, A. baumannii (increase in extracellular AK activity): 384-well format; for fold induction at 50 µM: Acinetobacter baumannii, 983709, 3 h
E. coli = format: cell-based, Escherichia coli; settings: 50 μM final drug concentration; for AK-based Prestwick Library Screening Results, E. coli (increase in extracellular AK activity): 384-well format; for fold induction at 50 µM: Escherichia coli, 3 h
E. faecium = format: cell-based, Enterococcus faecium; settings: 50 μM final drug concentration; for AK-based Prestwick Library Screening Results, E. faecium (increase in extracellular AK activity): 384-well format; for fold induction at 50 µM: Enterococcus faecium, 3 h
P. aeruginosa = format: cell-based, Pseudomonas aeruginosa; settings: 50 μM final drug concentration; for AK-based Prestwick Library Screening Results, P. aeruginosa (increase in extracellular AK activity): 384-well format; for fold induction at 50 µM: Pseudomonas aeruginosa, 3 h
[3] = cutoff for positive-scoring molecules 3-fold increase
[4] = planktonic, cutoff for positive-scoring molecules 3-fold increase, read-out: AK-based Prestwick Library Screening Results, K. pneumoniae (fold increase in extracellular AK activity)
[5] = planktonic, cutoff for positive-scoring molecules 3-fold increase, read-out: AK-based Prestwick Library Screening Results, S. aureus (fold increase in extracellular AK activity)
[6] = planktonic, cutoff for positive-scoring molecules 3-fold increase, read-out: AK-based Prestwick Library Screening Results, E. cloacae (fold increase in extracellular AK activity)
[7] = planktonic, cutoff for positive-scoring molecules 3-fold increase, read-out: AK-based Prestwick Library Screening Results, A. baumannii (fold increase in extracellular AK activity)
[8] = planktonic, cutoff for positive-scoring molecules 3-fold increase, read-out: AK-based Prestwick Library Screening Results, E. coli (fold increase in extracellular AK activity)
[9] = planktonic, cutoff for positive-scoring molecules 3-fold increase, read-out: AK-based Prestwick Library Screening Results, E. faecium (fold increase in extracellular AK activity)
[10] = planktonic, cutoff for positive-scoring molecules 3-fold increase, read-out: AK-based Prestwick Library Screening Results, P. aeruginosa (fold increase in extracellular AK activity)
[11] = planktonic K. pneumoniae, positive cutoff 3-fold increase, read-out: AK-based Prestwick library screening result, K. pneumoniae (fold increase in extracellular AK activity)
[12] = planktonic S. aureus, positive cutoff 3-fold increase, read-out: AK-based Prestwick library screening result, S. aureus (fold increase in extracellular AK activity)
[13] = planktonic E. cloacae, positive cutoff 3-fold increase, read-out: AK-based Prestwick library screening result, E. cloacae (fold increase in extracellular AK activity)
[14] = planktonic A. baumannii, positive cutoff 3-fold increase, read-out: AK-based Prestwick library screening result, A. baumannii (fold increase in extracellular AK activity)
[15] = planktonic E. coli, positive cutoff 3-fold increase, read-out: AK-based Prestwick library screening result, E. coli (fold increase in extracellular AK activity)
[16] = planktonic E. faecium, positive cutoff 3-fold increase, read-out: AK-based Prestwick library screening result, E. faecium (fold increase in extracellular AK activity)
[17] = planktonic P. aeruginosa, positive cutoff 3-fold increase, read-out: AK-based Prestwick library screening result, P. aeruginosa (fold increase in extracellular AK activity)
[18] = planktonic, cutoff for positive 3-fold increase, read-out: AK-based Prestwick Library Screening Results, K. pneumoniae (fold increase in extracellular AK activity)
[19] = planktonic, cutoff for positive 3-fold increase, read-out: AK-based Prestwick Library Screening Results, S. aureus (fold increase in extracellular AK activity)
[20] = planktonic, cutoff for positive 3-fold increase, read-out: AK-based Prestwick Library Screening Results, E. cloacae (fold increase in extracellular AK activity)
[21] = planktonic, cutoff for positive 3-fold increase, read-out: AK-based Prestwick Library Screening Results, A. baumannii (fold increase in extracellular AK activity)
[22] = planktonic, cutoff for positive 3-fold increase, read-out: AK-based Prestwick Library Screening Results, E. coli (fold increase in extracellular AK activity)
[23] = planktonic, cutoff for positive 3-fold increase, read-out: AK-based Prestwick Library Screening Results, E. faecium (fold increase in extracellular AK activity)
[24] = planktonic, cutoff for positive 3-fold increase, read-out: AK-based Prestwick Library Screening Results, P. aeruginosa (fold increase in extracellular AK activity)

## Cl.N=C(N=C(N)N)N1CCOCC1 [Moroxidine hydrochloride]
K. pneumoniae; [3]
  AK-based Prestwick Library Screening Results, K. pneumoniae (increase in extracellular AK activity): 0.4
[1]; [3]
  AK-based Prestwick Library Screening Results, S. aureus (increase in extracellular AK activity): 0.4
E. cloacae; [3]
  AK-based Prestwick Library Screening Results, E. cloacae (increase in extracellular AK activity): 0.3
[2]; [3]
  AK-based Prestwick Library Screening Results, A. baumannii (increase in extracellular AK activity): 0.4
E. coli; [3]
  AK-based Prestwick Library Screening Results, E. coli (increase in extracellular AK activity): 0.5
E. faecium; [3]
  AK-based Prestwick Library Screening Results, E. faecium (increase in extracellular AK activity): 0.8
P. aeruginosa; [3]
  AK-based Prestwick Library Screening Results, P. aeruginosa (increase in extracellular AK activity): 0.3

## CO[C@@]1(NC(=O)C(C(=O)O)c2ccc(O)cc2)C(=O)N2C(C(=O)O)=C(CSc3nnnn3C)CO[C@@H]21 (some centres unmarked) [Moxalactam disodium salt]
K. pneumoniae; [4]
  fold induction at 50 µM: 3.9
[1]; [5]
  fold induction at 50 µM: 4.4
E. cloacae; [6]
  fold induction at 50 µM: 0.8
[2]; [7]
  fold induction at 50 µM: 0.6
E. coli; [8]
  fold induction at 50 µM: 18.1
E. faecium; [9]
  fold induction at 50 µM: 1.3
P. aeruginosa; [10]
  fold induction at 50 µM: 0.6

## CC(=O)Oc1cc(C(C)C)c(OCCN(C)C)cc1C.Cl [Moxisylyte hydrochoride]
K. pneumoniae; [3]
  AK-based Prestwick Library Screening Results, K. pneumoniae (increase in extracellular AK activity): 1.0
[1]; [3]
  AK-based Prestwick Library Screening Results, S. aureus (increase in extracellular AK activity): 1.1
E. cloacae; [3]
  AK-based Prestwick Library Screening Results, E. cloacae (increase in extracellular AK activity): 1.6
[2]; [3]
  AK-based Prestwick Library Screening Results, A. baumannii (increase in extracellular AK activity): 1.1
E. coli; [3]
  AK-based Prestwick Library Screening Results, E. coli (increase in extracellular AK activity): 1.2
E. faecium; [3]
  AK-based Prestwick Library Screening Results, E. faecium (increase in extracellular AK activity): 0.9
P. aeruginosa; [3]
  AK-based Prestwick Library Screening Results, P. aeruginosa (increase in extracellular AK activity): 1.1

## COc1nc(C)nc(Cl)c1N=C1NCCN1 [Moxonidine]
K. pneumoniae; [11]
  fold induction at 50 µM: 1.1
[1]; [12]
  fold induction at 50 µM: 1
E. cloacae; [13]
  fold induction at 50 µM: 1.8
[2]; [14]
  fold induction at 50 µM: 1.1
E. coli; [15]
  fold induction at 50 µM: 1.1
E. faecium; [16]
  fold induction at 50 µM: 0.9
P. aeruginosa; [17]
  fold induction at 50 µM: 1.1

## COc1c(C)c2c(c(O)c1C/C=C(\C)CCC(=O)O)C(=O)OC2 [Mycophenolic acid]
K. pneumoniae; [18]
  fold induction at 50 µM: 1.5
[1]; [19]
  fold induction at 50 µM: 1.1
E. cloacae; [20]
  fold induction at 50 µM: 1.3
[2]; [21]
  fold induction at 50 µM: 1.2
E. coli; [22]
  fold induction at 50 µM: 1.2
E. faecium; [23]
  fold induction at 50 µM: 1.1
P. aeruginosa; [24]
  fold induction at 50 µM: 1.2

## c1cncc(C2=NCCC2)c1 [Myosmine]
K. pneumoniae; planktonic, […], read-out: AK-based Prestwick Library Screening Results, K. pneumoniae (fold increase in extracellular AK activity)
  fold induction at 50 µM: 0.5
[1]; planktonic, […], read-out: AK-based Prestwick Library Screening Results, S. aureus (fold increase in extracellular AK activity)
  fold induction at 50 µM: 0.4
E. cloacae; planktonic, […], read-out: AK-based Prestwick Library Screening Results, E. cloacae (fold increase in extracellular AK activity)
  fold induction at 50 µM: 0.4
[2]; planktonic, […], read-out: AK-based Prestwick Library Screening Results, A. baumannii (fold increase in extracellular AK activity)
  fold induction at 50 µM: 0.5
E. coli; planktonic, […], read-out: AK-based Prestwick Library Screening Results, E. coli (fold increase in extracellular AK activity)
  fold induction at 50 µM: 0.5
E. faecium; planktonic, […], read-out: AK-based Prestwick Library Screening Results, E. faecium (fold increase in extracellular AK activity)
  fold induction at 50 µM: 0.9
P. aeruginosa; planktonic, […], read-out: AK-based Prestwick Library Screening Results, P. aeruginosa (fold increase in extracellular AK activity)
  fold induction at 50 µM: 0.4

## O=c1c(O)c(-c2cc(O)c(O)c(O)c2)oc2cc(O)cc(O)c12 [Myricetin]
K. pneumoniae; [18]
  fold induction at 50 µM: 0.9
[1]; [19]
  fold induction at 50 µM: 0.5
E. cloacae; [20]
  fold induction at 50 µM: 1.2
[2]; [21]
  fold induction at 50 µM: 0.8
E. coli; [22]
  fold induction at 50 µM: 0.9
E. faecium; [23]
  fold induction at 50 µM: 0.8
P. aeruginosa; [24]
  fold induction at 50 µM: 0.9

## CC(=O)N[C@@H](CC(C)C)C(=O)O [N-Acetyl-L-leucine]
K. pneumoniae; [4]
  fold induction at 50 µM: 0.6
[1]; [5]
  fold induction at 50 µM: 0.7
E. cloacae; [6]
  fold induction at 50 µM: 0.9
[2]; [7]
  fold induction at 50 µM: 0.7
E. coli; [8]
  fold induction at 50 µM: 0.7
E. faecium; [9]
  fold induction at 50 µM: 0.9
P. aeruginosa; [10]
  fold induction at 50 µM: 0.7

## COc1ccc2cc(CCC(C)=O)ccc2c1 [Nabumetone]
K. pneumoniae; [4]
  fold induction at 50 µM: 0.5
[1]; [5]
  fold induction at 50 µM: 0.4
E. cloacae; [6]
  fold induction at 50 µM: 1
[2]; [7]
  fold induction at 50 µM: 0.4
E. coli; [8]
  fold induction at 50 µM: 0.5
E. faecium; [9]
  fold induction at 50 µM: 0.4
P. aeruginosa; [10]
  fold induction at 50 µM: 0.6

## NC(=O)c1ccc[n+]([C@@H]2O[C@H](COP(=O)([O-])OP(=O)(O)OC[C@H]3O[C@@H](n4cnc5c(N)ncnc54)[C@H](O)[C@@H]3O)[C@@H](O)[C@H]2O)c1 [Nadide]
K. pneumoniae; [4]
  fold induction at 50 µM: 0.7
[1]; [5]
  fold induction at 50 µM: 0.6
E. cloacae; [6]
  fold induction at 50 µM: 0.9
[2]; [7]
  fold induction at 50 µM: 0.8
E. coli; [8]
  fold induction at 50 µM: 0.9
E. faecium; [9]
  fold induction at 50 µM: 0.9
P. aeruginosa; [10]
  fold induction at 50 µM: 0.8

## CC1CCc2c(N3CCC(O)CC3)c(F)cc3c(=O)c(C(=O)O)cn1c23 (centres unmarked) [Nadifloxacin]
K. pneumoniae; [11]
  fold induction at 50 µM: 5.2
[1]; [12]
  fold induction at 50 µM: 4.3
E. cloacae; [13]
  fold induction at 50 µM: 1.7
[2]; [14]
  fold induction at 50 µM: 2.9
E. coli; [15]
  fold induction at 50 µM: 13.4
E. faecium; [16]
  fold induction at 50 µM: 2.8
P. aeruginosa; [17]
  fold induction at 50 µM: 17.7

## CC(C)(C)NCC(O)COc1cccc2c1CC(O)C(O)C2 (centres unmarked) [Nadolol]
K. pneumoniae; [4]
  fold induction at 50 µM: 0.6
[1]; [5]
  fold induction at 50 µM: 0.7
E. cloacae; [6]
  fold induction at 50 µM: 0.8
[2]; [7]
  fold induction at 50 µM: 0.7
E. coli; [8]
  fold induction at 50 µM: 0.8
E. faecium; [9]
  fold induction at 50 µM: 0.9
P. aeruginosa; [10]
  fold induction at 50 µM: 0.6

## CCOc1ccc2ccccc2c1C(=O)N[C@@H]1C(=O)N2[C@@H]1SC(C)(C)[C@@H]2C(=O)O [Nafcillin sodium salt monohydrate]
K. pneumoniae; cutoff for positive-scoring molecules 3-fold increase, read-out: AK-based Prestwick Library Screening Results, K. pneumoniae (fold increase in extracellular AK activity)
  fold induction at 50 µM: 1
[1]; cutoff for positive-scoring molecules 3-fold increase, read-out: AK-based Prestwick Library Screening Results, S. aureus (fold increase in extracellular AK activity)
  fold induction at 50 µM: 6.5
E. cloacae; cutoff for positive-scoring molecules 3-fold increase, read-out: AK-based Prestwick Library Screening Results, E. cloacae (fold increase in extracellular AK activity)
  fold induction at 50 µM: 1.4
[2]; cutoff for positive-scoring molecules 3-fold increase, read-out: AK-based Prestwick Library Screening Results, A. baumannii (fold increase in extracellular AK activity)
  fold induction at 50 µM: 1.5
E. coli; cutoff for positive-scoring molecules 3-fold increase, read-out: AK-based Prestwick Library Screening Results, E. coli (fold increase in extracellular AK activity)
  fold induction at 50 µM: 1.2
E. faecium; cutoff for positive-scoring molecules 3-fold increase, read-out: AK-based Prestwick Library Screening Results, E. faecium (fold increase in extracellular AK activity)
  fold induction at 50 µM: 1
P. aeruginosa; cutoff for positive-scoring molecules 3-fold increase, read-out: AK-based Prestwick Library Screening Results, P. aeruginosa (fold increase in extracellular AK activity)
  fold induction at 50 µM: 1.3

## CCN(CC)CCOC(=O)C(Cc1cccc2ccccc12)CC1CCCO1 (centres unmarked) [Nafronyl oxalate]
K. pneumoniae; [18]
  fold induction at 50 µM: 1
[1]; [19]
  fold induction at 50 µM: 0.9
E. cloacae; [20]
  fold induction at 50 µM: 1.4
[2]; [21]
  fold induction at 50 µM: 1
E. coli; [22]
  fold induction at 50 µM: 1
E. faecium; [23]
  fold induction at 50 µM: 1
P. aeruginosa; [24]
  fold induction at 50 µM: 1.1
